Reference: PMC4685510, “A Cell Biologist’s Field Guide to Aurora Kinase Inhibitors” (Frontiers in Oncology, 2015)

Columns and labels:
[1] = biological target: T1, Aurora A/TPX2^1–43 (Homo sapiens, UniProt O14965); assay: Aurora A/TPX2^1–43 kinase assay (ADP-Glo)
T1 sequence (O14965 1-403): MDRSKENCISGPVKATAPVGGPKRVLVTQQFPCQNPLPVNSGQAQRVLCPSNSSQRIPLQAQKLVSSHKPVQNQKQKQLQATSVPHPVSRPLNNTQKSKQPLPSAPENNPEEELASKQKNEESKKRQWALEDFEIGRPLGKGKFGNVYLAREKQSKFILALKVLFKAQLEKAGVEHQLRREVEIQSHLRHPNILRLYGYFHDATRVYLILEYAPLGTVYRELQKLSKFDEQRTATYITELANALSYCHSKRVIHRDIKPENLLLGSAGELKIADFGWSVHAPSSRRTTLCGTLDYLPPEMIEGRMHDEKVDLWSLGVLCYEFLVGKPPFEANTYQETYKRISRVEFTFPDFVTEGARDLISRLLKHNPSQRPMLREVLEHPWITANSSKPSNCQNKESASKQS
T1 sequence (Q9ULW0 1-43 partner limits assumed): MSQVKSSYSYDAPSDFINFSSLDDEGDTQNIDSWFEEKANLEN

[2] = biological target: T2, full-length human Aurora A (Homo sapiens, UniProt O14965); assay: Aurora A kinase assay (ADP-Glo, Kemptide substrate)
T2 sequence (O14965 1-403): T1 sequence (O14965 1-403)

[3] = tested on: Aurora A; conditions: ref 59; read-out: Aurora A IC50 (Published); cited from earlier work
[4] = tested on: HeLa cells; assay: Live cell-activated caspase 3/7 assay; assay type: cell-based, human; conditions: within 24 h of treatment
Procedure: HeLa cells (6,000/well) were seeded in 96-well μCLEAR plates (Greiner) in 100 μL DMEM plus serum, and incubated for 16 h at 37°C and 5% CO2. […] After 24 h 2 μM CellEvent Caspase-3/7 Green Reagent (Life Technologies), and NucBlue Live ReadyProbes Reagent (Hoechst 33342; Life Technologies) were added. Cells were imaged after 60 min on a CV7000 spinning disk confocal system (Yokogawa Electric Corporation) with a 20 × 0.75 NA U-PlanApo objective and 2560 × 2160 sCMOS camera with 2 × 2 binning. The imaging chamber was maintained at 37°C and 5% CO2. Six to eight fields/well were imaged, with duplicate wells for each condition. 3 μm × 2 μm z-sections in the blue (40% power, 300 ms, 35% gain) and green (40% power, 300 ms, 35% gain) channels were captured in each field. The apoptotic fraction was calculated by dividing the number of cells fluorescing at 530 nm (corresponding to the cleaved caspase reporter reagent) by the number of nuclei (Hoechst staining). Image analysis was done using the CV7000 image analysis software (Yokogawa Electric Corporation).

[5] = tested on: pH3(Ser 28) in HeLa cells; assay: Substrate phosphorylation immunofluorescence assay, pH3(Ser 28), HeLa; assay type: cell-based, human; conditions: 8 h inhibitor treatment
Procedure: After 8 h cells were fixed with 4% PFA for 20 min at room temperature. The fixed cells were washed with PBS. For immunostaining, cells were permeabilized and blocked with PBS containing 10% normal donkey serum (Jackson ImmunoResearch) and 0.1% Triton-X100 for 1 h at room temperature. Primary antibodies against phospho-LATS2 (Ser 83), phospho-histone H3(Ser 28), and anti-phospho-MPM2 (see Table S3 in Supplementary Material) were incubated for 1 h at room temperature. […] Cells were then washed twice with PBS containing 0.1% Triton-X100. […] Fifty fields per well were imaged with quadruplicate wells for each condition. Image analysis was done using the CV7000 image analysis software (Yokogawa Electric Corporation). Between 100 and 1,000 mitotic cells per condition were segmented applying object identification parameters to select for bright MPM2 labeling. Using a nuclear identifier protocol, minimum intensity thresholds were set for pLATS2(Ser 83) and the pH3(Ser 28) signals, and the resulting identified objects were eroded, dilated, and filtered for size by user-defined thresholds. […] The same thresholds were applied for all of the inhibitor-treated samples, which were processed, imaged, and analyzed in parallel with control DMSO-treated cells. Data were fit using a four-parameter, variable slope fit in Prism (GraphPad).

[6] = tested on: Aurora B; conditions: ref 59; read-out: Aurora B IC50 (Published); cited from earlier work
[7] = tested on: HeLa, RPE1, and U2OS cells; assay: Cellular proliferation analysis (ATPLite, 24 h)
[8] = biological target: T3, Aurora B/INCENP^783–918 (Homo sapiens, UniProt Q96GD4); assay: Aurora B/INCENP^783–918 kinase assay (ADP-Glo); assay type: biochemical
T3 construct: purchased SignalChem

[9] = tested on: pLATS2(Ser 83) in HeLa cells; assay: Substrate phosphorylation immunofluorescence assay, pLATS2(Ser 83), HeLa; assay type: cell-based, human; conditions: Homo sapiens, HeLa, 8 h, read-out: pLATS2 (Ser83) IC50, HeLa; 8 h inhibitor treatment
Procedure: We employed the protocol described in Figure 3D to analyze substrate phosphorylation in HeLa cells following treatment with all 10 inhibitors in dose–response. Asynchronous cells were incubated with vehicle (DMSO) or different inhibitor doses for 8 h and then fixed and labeled with a mixture of three antibodies directed against pLATS2(Ser 83), pH3(Ser 28), and MPM2 [which detects mitotic phosphoepitopes; ([86])]. While both the anti-pLATS2(Ser 83) and MPM2 antibodies are mouse monoclonals, they are of different IgG subclasses [IgG2b for anti-pLATS2(Ser 83) and IgG1 for MPM2], and can thus be detected with subclass-specific secondary antibodies (Table S3 in Supplementary Material).
In control mitotic cells, pLATS2(Ser 83) is concentrated in foci around the spindle poles (Figure 3E; top row – green arrow) and pH3(Ser 28) is on the mitotic chromatin (Figure 3E; top row – red arrow). Selective kinase inhibition should result in loss of one signal but not the other, as illustrated by the example images for specific conditions in Figure 3E (middle and bottom rows). Cells were imaged in 4 channels to visualize pLATS2(Ser 83), pH3(Ser 28), MPM2, and DNA (labeled with Hoechst) and mitotic cells were segmented based on their bright MPM2 labeling (Figure 3E). Intensity and area thresholds were set to select the pLATS2(Ser 83) foci and the pH3(Ser 28)-labeled chromatin in their respective channels in DMSO-treated control cells and the same thresholds were applied for inhibitor-treated cells. The mean fluorescence intensity per pixel was measured to assess the activities of the kinases targeting these two substrate phosphorylation sites.
Twelve thousand HeLa cells, 10,000 U2OS cells, or 8,000 RPE1 cells were seeded into 96-well glass-bottom Sensoplates (Greiner) 16 h before inhibitor addition. Prior to seeding, the glass-bottom plates were coated with poly-L-lysine (Sigma). […] After 8 h cells were fixed with 4% PFA for 20 min at room temperature. The fixed cells were washed with PBS. For immunostaining, cells were permeabilized and blocked with PBS containing 10% normal donkey serum (Jackson ImmunoResearch) and 0.1% Triton-X100 for 1 h at room temperature. Primary antibodies against phospho-LATS2 (Ser 83), phospho-histone H3(Ser 28), and anti-phospho-MPM2 (see Table S3 in Supplementary Material) were incubated for 1 h at room temperature. […] Cells were then washed twice with PBS containing 0.1% Triton-X100. Image acquisition in four channels was performed using a CV7000 spinning disk confocal system (Yokogawa Electric Corporation) with a 40 × 0.95 NA U-PlanApo objective and 2560 × 2160 pixel sCMOS camera. […] Fifty fields per well were imaged with quadruplicate wells for each condition. Image analysis was done using the CV7000 image analysis software (Yokogawa Electric Corporation). Between 100 and 1,000 mitotic cells per condition were segmented applying object identification parameters to select for bright MPM2 labeling. Using a nuclear identifier protocol, minimum intensity thresholds were set for pLATS2(Ser 83) and the pH3(Ser 28) signals, and the resulting identified objects were eroded, dilated, and filtered for size by user-defined thresholds. For only the MPM2-positive mitotic cells, the mean fluorescence intensity of the identified pLATS2(Ser 83) and pH3(Ser 28) objects was measured, and the average intensity per cell per well was calculated. The same thresholds were applied for all of the inhibitor-treated samples, which were processed, imaged, and analyzed in parallel with control DMSO-treated cells. Data were fit using a four-parameter, variable slope fit in Prism (GraphPad). Primary and secondary antibody dilutions can be found in Table S3 in Supplementary Material.

[10] = fold difference in potency calculated by dividing Ki values

T3 sequence (Q96GD4 whole entry): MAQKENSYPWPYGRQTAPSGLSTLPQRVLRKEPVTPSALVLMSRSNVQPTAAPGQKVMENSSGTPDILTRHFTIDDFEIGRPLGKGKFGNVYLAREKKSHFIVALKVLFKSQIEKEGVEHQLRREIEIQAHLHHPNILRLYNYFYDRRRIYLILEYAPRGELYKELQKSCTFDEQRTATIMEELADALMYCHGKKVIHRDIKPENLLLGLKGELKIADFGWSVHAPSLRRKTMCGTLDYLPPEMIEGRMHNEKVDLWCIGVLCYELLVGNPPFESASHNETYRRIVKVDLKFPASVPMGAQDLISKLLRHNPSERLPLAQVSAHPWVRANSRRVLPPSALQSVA
T3 sequence (Q9NQS7 783-918 partner limits assumed): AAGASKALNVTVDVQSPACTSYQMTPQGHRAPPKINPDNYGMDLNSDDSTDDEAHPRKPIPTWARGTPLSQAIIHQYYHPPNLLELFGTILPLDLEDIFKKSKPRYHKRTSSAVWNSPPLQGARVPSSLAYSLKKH

CCN1CCN(C(=O)Cc2ccc(Nc3ncc(F)c(Nc4ccc(C(=O)Nc5ccccc5Cl)cc4)n3)cc2)CC1 [Genentech Aurora Inhibitor 1]
Ki [1]: 0.00024 ± 2e-05 µM
Increase of affinity for Aurora A by TPX2^1–43 ([1]; Aurora A Ki versus Aurora A/TPX2^1–43 Ki): 2.5 fold
Selectivity ratio Aur A-TPX2^1–43 versus Aur B-INCENP^783–918 [1, 10]: 654 fold
Ki ([2]; Aurora A Ki Mean ± SD, [ATP] = Km(ATP) (35 μM), Ki calculated from IC50 with tight-binding equation): 0.00057 ± 6e-05 µM
Selectivity ratio Aur A versus Aur A-TPX2^1–43 [2, 10]: 0.4 fold
Selectivity ratio Aur A versus Aur B-INCENP^783–918 [2, 10]: 274 fold
IC50 [3]: 0.0034 µM
Apoptosis [4]: apoptotic cell death
pHistone H3 (Ser28) IC50 [5]: NE@9 μM
pHistone H3 (Ser28) IC50 ([5]; listed as Genentech Aurora Inh 1): NE (9 μM)
IC50 [6]: 3.4 µM
Toxicity / cytotoxicity (cellular proliferation) ([7]; HeLa, RPE1, U2OS, 24 h (Figure 4D, Figure S2B)): cytotoxic
Effect on proliferation ([7]; HeLa, within 24 h of treatment): significantly reduced proliferation
Toxicity (reduced proliferation) ([7]; U2OS and RPE1 cells, 24 h): toxicity
Ki [8]: 0.156 ± 0.0337 µM
IC50 [9]: 0.49 µM
